{"source": "ChEMBL document CHEMBL1126490", "about": "“An unusual oxetane nucleoside as a potent antiviral agent” (1993)", "type_in_all_cases": "functional", "key": {"Mus musculus [1]": {"test_system": "Mus musculus", "assay": "Percent survival of mice against forest virus after 5 mg/Kg peroral administration of compound", "settings": "po"}, "Mus musculus [2]": {"species": "Mus musculus", "assay": "Mean survival time of mice against forest virus was determined"}, "Mus musculus [3]": {"species": "Mus musculus", "assay": "Mean survival time of mice against Japanese encephalitis virus was determined"}, "Mus musculus [4]": {"test_system": "Mus musculus", "assay": "Percent survival of mice against forest virus after 10 mg/Kg peroral administration of compound", "settings": "po"}, "Mus musculus [5]": {"test_system": "Mus musculus", "assay": "Percent survival of mice against Japanese encephalitis virus after 10 mg/Kg peroral administration of compound", "settings": "po"}, "Mus musculus [6]": {"test_system": "Mus musculus", "assay": "Percent survival of mice against Japanese encephalitis virus after 5 mg/Kg peroral administration of the compound.", "settings": "po"}}, "note": "Values joined by “and” are separate entries in the source; they are usually repeats but may differ in a detail not shown here. Equal entries are not always repeated."}
{"smiles": "Nc1ncnc2c1ncn2C1OC2COC2C1O", "note": "(stereo unspecified)", "values": [{"measurement": "survival at 5 mg/kg", "setting": "Mus musculus [1]", "result": 37, "unit": "%"}, {"measurement": "MST", "setting": "Mus musculus [2]", "result": "11.6 days and 11.8 days"}, {"measurement": "MST", "setting": "Mus musculus [3]", "result": "10.7 days and 15.5 days"}, {"measurement": "survival at 10 mg/kg", "setting": "Mus musculus [4]", "result": 50, "unit": "%"}, {"measurement": "survival at 10 mg/kg", "setting": "Mus musculus [5]", "result": 67, "unit": "%"}, {"measurement": "survival at 5 mg/kg", "setting": "Mus musculus [6]", "result": 37, "unit": "%"}]}
